According to patent publication US20030008847A1, “Treatment of diabetes and related pathologies” (Medicure, Inc., priority 1999, published 2003):

Key:
[1] = system: rats induced with Type I diabetes; test: Type I diabetes in rats induced with streptozotocin; glucose and insulin levels; assay type: in vivo, Male Sprague-Dawley rats; settings: compared to diabetic group, Insulin 1 unit and 3 unit, P-5-P 25 mg/kg daily; for plasma glucose levels: FIG. 1; for plasma insulin levels: FIG. 2
Method: Male Sprague-Dawley (Charles River Laboratories, Montreal, Canada) rats weighing approximately 200 g are randomly separated into control and experimental groups. All experimental animals are given an intravenous injection of 0.1 M citrate buffered streptozotocin (pH 4.5) at a dosage of 65 mg/kg of body weight to induce diabetes mellitus. All control animals receive an intravenous injection of 0.1 M citrate buffer (pH 4.5) alone. One experimental group of rats also receives daily doses of pyridoxal-5′-phosphate (25 mg/kg body weight) (Aldrich Canada Ltd., Ontario, Canada). A second experimental group receives daily subcutanteous injections of Humulin® N (3 units per day) (insulin isophene, human biosynthetic; Eli Lilly and Co., Indianapolis, Ind.). A third experimental group receives both daily subcutaneous injections of Humulin® N (3 units per day) and a daily dose of pyridoxal-5′-phosphate (25 mg/kg body weight). […] […] All animals are fed rat chow and water ad libitum. Plasma glucose levels were done using the Infinity Glucose Reagent® (Sigma Diagnostics, St. Louis, Mo.).

[2] = system: rats induced with Type II diabetes; test: Type II diabetes in rats induced by sucrose feeding; plasma glucose, plasma insulin, systolic blood pressure; assay type: in vivo, Male Sprague-Dawley rats; settings: P-5-P 25 mg/kg orally/day; for plasma glucose levels: FIG. 3; for plasma glucose levels / plasma insulin levels: compared to diabetic group, tolbutamide 40 and 20 mg/kg, 16 weeks; for plasma insulin levels: FIG. 4
Method: To determine the effect of a compound suitable for use in methods of the invention on glucose and insulin levels, as well as increases in systolic blood pressure, rats having type II diabetes are administered pyridoxal-5'-phosphate, either alone or in combination with sucrose and/or tolbutamide, and their systolic blood pressure, urine and blood glucose and insulin levels are determined. […] et al: Isr J Med Sci; 33:153-159. […] et al: Isr J Med Sci; 33:153-159, a high sucrose or fructose diet for a prolonged period is one technique used to induce Type II diabetes, specifically hypertension associated with hyperglycemia and hyperinsulinemia in animals. Male Sprague-Dawley (Charles River Laboratories, Montreal, Canada) rats weighing approximately 200 g are randomly separated into the following groups with each group having 5 amimals: a) The control group that was fed a normal diet and provided with drinking water b) The sucrose group that was fed 35% sucrose (35 gm sucrose/100 ml of drinking water/day) with an average intake of 150 ml/rat/day c) The sucrose+[…] group that was fed sucrose as stated in b above and 25 mg/kg orally/day of […] g) The sucrose+tolbutamide group that was fed sucrose as stated in b above and 20 mg/kg orally/day of tolbutamide. Total duration of the study was 16 weeks. Plasma insulin levels were measured using Rat Insulin RIA Kit (Linco Research Inc., St. Charles, Mo.). Plasma glucose levels were done using the Infinity Glucose Reagent® (Sigma Diagnostics, St. Louis, Mo.).

Molecule | plasma glucose levels [1] | plasma insulin levels [1] | plasma glucose levels [2] | plasma insulin levels [2] | rise in systolic blood pressure ([2]; FIG. 5, tail cuff, compared to diabetic and tolbutamide treatment groups)
Cc1ncc(COP(=O)(O)O)c(C=O)c1O [Example P-5-P, pyridoxal-5′-phosphate] | significantly reduced | significantly increased | significantly decreased | significantly decreased | significantly decreased
CCCCNC(=O)NS(=O)(=O)c1ccc(C)cc1 [tolbutamide, reference compound] | – | – | significantly decreased | significantly decreased | –
Insulin: Humulin® N (insulin isophene, human biosynthetic; Eli Lilly and Co.) | significantly reduced | significantly increased | – | – | –
